Format in all cases: in vivo
Data set [1] relates to Ctenocephalides felis. The experiment in a line: Example 1: efficacy of isoxazoline liquid formulation given by mouth to cats against fleas. The following applies: 1.125 mg/kg by mouth daily on days 0-29, liquid formulation, fed. An excerpt:
Methods: A pool of 14 cats are to be preliminarily infested with ˜100 unfed adult C. felis in order to identify cats that can suitably sustain a reliable infestation rate, defined as approximately 50% fleas being live at the end of a 48-hour period. The 12 cats with the highest live flea counts are to be selected for inclusion in the study. The cats are to be randomized and divided into a control group and a treatment group with 6 cats per group.
The cats are to be housed individually during the study period and are to be fed a commercial dry cat food ration with ad libitum access to water.
(§1) Each cat in the isoxazoline treatment group is to receive by mouth a liquid formulation of isoxazoline. The dosage of 1.125 mg/kg of isoxazoline is to be administered to the cats on each of days 0-29.
Cats in the control group are not to receive isoxazoline or any other flea control treatment. Each cat in the treatment group is to be offered its daily ration (dry food) and the individual doses of liquid formulation are to be administered after the individual cat has eaten at least 25% of its total daily ration. After receiving the dose of isoxazoline, the cats are to be allowed to continue eating. This mimics incorporating the isoxazoline in feed. Each cat in the treatment group and the control group is to be experimentally infested with 100 unfed adult fleas on test days −1, 5, 12, 20 and 35. […]

In data set [2] the test system is Ctenocephalides felis. The experiment in a line: Example 6: efficacy of Mivorilaner in medicated feed in cats against fleas. The text has this: FIG. 1. A graph of the arithmetic mean efficacy for treatment Group 2 (vertical hash) and Group 3 (horizontal hash). Percent efficacy=[AM fleas CONTROL−AM fleas TREATED]/AM fleas CONTROL Efficacy measured at 2, 9, 16, 30, and 37 days after Initial Treatment.
Methods: A pool of cats are to be preliminarily infested with ˜100 unfed adult C. felis fleas in order to produce cats that can suitably sustain a reliable infestation rate, defined as approximately 50% retention of live fleas at the end of a 48-hour period. The cats with the highest live flea counts are to be randomly assigned to a single control group (Group 1) and 2 medicated feed treatment groups (Groups 2 and 3) with 4 cats per group. The cats in groups 2 and 3 will receive Mivorilaner.
(§2) The cats are to be housed individually during the study period and are to have ad libitum access to water.
Each cat in a treatment group (Groups 2 and 3) is to receive a medicated daily feed from study days 0-29 according to TABLE 4.
The cats are to be fasted overnight prior to each daily treatment. The daily dose of Mivorilaner is to be mixed into a small portion (approximately 25% of the cat's daily dietary needs) of wet canned cat food. Approximately 4 hours after the medicated feed has been initially offered, the remaining medicated feed, if any, will be mixed with the 75% unmedicated daily feed for each cat. […]

Data set [3] in a line: Example 5: plasma levels of isoxazoline in cats given two medicated feed formulations. As to conditions: 1 mg/kg daily, days 0-14. The procedure:
Methods: A pool of cats are to be randomly assigned to a single control group and 2 treatment groups with 6 cats per group.
as §2
Each cat in a treatment group (test groups 2 and 3) is to receive one of two medicated daily feeds from study days 0-14. The medicated daily feed is to be offered to the cats for 1 hour on each of days 0-14 according to TABLE 3.
Blood is to be drawn at day 0 (day of the first administration of medicated feed) and days 2, 4, 7, 10, 14, 21 and 30 after the initial dose of isoxazoline is administered. The average concentration of isoxazoline in the blood for each of the medicated feed formulations (treatment groups 2 and 3) can then be determined.

The nature of data set [4]: Example 1: average plasma concentration of isoxazoline in cats, daily oral liquid dosing. The following applies: 1.125 mg/kg daily oral. The procedure:
as §1
Using the same study method as described above, blood is to be drawn at 72, 168, 336, 504, 720 and 888 hours after the initial dose of isoxazoline is administered. The average concentration of isoxazoline in the blood can then be determined.

The record followed here is patent US20240156789A1, “ORAL FELINE FEED AND METHODS FOR CONTROLLING FLEA INFESTATIONS IN A FELINE” (priority 2021, published 2024).

Each structure is given as a SMILES string.

As to `O=C(CNC(=O)c1sc(C2=NO[C@@](c3cc(Cl)c(F)c(Cl)c3)(C(F)(F)F)C2)c2c1CCC2)NCC(F)F` [mivorilaner, 3-[(5S)-5-(3,5-dichloro-4-fluorophenyl)-5-(trifluoromethyl)-4,5-dihydroisoxazol-3-yl]-N-[2-[(2,2-difluoroethyl)amino]-2-oxoethyl]-5,6-dihydro-4H-cyclopenta[c]thiophene-1-carboxamide], the “reduction in live flea counts over the control group” value with Ctenocephalides felis [1] is “at least 95%”. Further, the “Percent efficacy (reduction in live and moribund flea counts)” value with Ctenocephalides felis [2] (Group 2, 0.75 mg/kg daily in wet canned cat food days 0-29, by day 9) came to 100%; in the data set on Ctenocephalides felis [2] (Group 3, 1.5 mg/kg daily in wet canned cat food days 0-29, by day 9) it was 100%. The plasma concentrations result in data set [3] was “consistent between treatment groups 2 and 3”. The average plasma concentration result in data set [4] (at 72 hours) was “about 1011 ng/mL”; in data set [4] (at 504 hours), “about 4088 ng/mL”; in data set [4] (at 888 hours, approximately 8 days after the final dose), “about 3025 ng/mL”.
